# Data: patent US20260285850A1, “SUBSTITUTED OXAZOLIDINONES AND IMIDAZOLINONES AS HERBICIDES” (FMC CORPORATION, priority 2023, published 2026)
# Experiments:
# Format in all cases: in vivo
# [1] = system: barnyardgrass (Echinochloa crus-galli); experiment: Test A preemergence soil spray, visual injury rating 0-100; details: 10 days
# In short: (§1)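 Rating: visual, day 10, untreated plants as reference, 0 no effect to 100 full control. Plants were in loam-sand and were treated either preemergence via directed soil spray or postemergence at the one- to two-leaf stage.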
# [2] = system: blackgrass (Alopecurus myosuroides); experiment: as above; details: 10 days
# In short: as §1
# corn (Zea mays) [3] = experiment: as above; details: 10 days
# In short: as §1
# [4] = system: green foxtail (Setaria viridis); experiment: as above; details: 10 days
# In short: as §1
# kochia (Bassia scoparia) [5] = experiment: as above; details: 10 days
# In short: as §1
# [6] = system: oat, wild (wild oat, Avena fatua); experiment: as above; details: 10 days
# In short: as §1
# [7] = system: palmer (palmer amaranth, palmer pigweed, Amaranthus palmeri); experiment: as above; details: 10 days
# In short: as §1
# [8] = system: ragweed (common ragweed, Ambrosia artemisiifolia); experiment: as above; details: 10 days
# In short: as §1
# [9] = system: ryegrass, Italian (italian ryegrass, Lolium multiflorum); experiment: as above; details: 10 days
# In short: as §1
# soybean (Glycine max) [10] = experiment: as above; details: 10 days
# In short: as §1
# [11] = system: wheat (Triticum aestivum); experiment: as above; details: 10 days
# In short: as §1
# [12] = system: barnyardgrass (Echinochloa crus-galli); experiment: Test A postemergence application, visual injury rating 0-100
# In short: as §1
# [13] = system: blackgrass (Alopecurus myosuroides); experiment: as above
# In short: as §1
# corn (Zea mays) [14] = experiment: as above
# In short: as §1
# [15] = system: galium (catchweed bedstraw, Galium aparine); experiment: as above
# In short: as §1
# [16] = system: green foxtail (Setaria viridis); experiment: as above
# In short: as §1
# [17] = system: horseweed (Erigeron canadensis); experiment: as above
# In short: as §1
# kochia (Bassia scoparia) [18] = experiment: as above
# In short: as §1
# [19] = system: oat, wild (wild oat, Avena fatua); experiment: as above
# In short: as §1
# [20] = system: palmer (palmer amaranth, palmer pigweed, Amaranthus palmeri); experiment: as above
# In short: as §1
# [21] = system: ragweed (common ragweed, Ambrosia artemisiifolia); experiment: as above
# In short: as §1
# [22] = system: ryegrass, Italian (italian ryegrass, Lolium multiflorum); experiment: as above
# In short: as §1
# soybean (Glycine max) [23] = experiment: as above
# In short: as §1
# [24] = system: wheat (Triticum aestivum); experiment: as above
# In short: as §1
# [25] = system: barnyardgrass (Echinochloa crusgalli); experiment: Test B flooded paddy test, visual plant response rating 0-100; details: 250 g ai/ha, Flood, applied to paddy water, evaluated after 13 days
# In short: (§2)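 In this flooded assay, 2-leaf seedlings received compound through the water layer, kept at 3 cm over the soil. Plants were held 13 days in a greenhouse and then visually compared with control pots.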
# [26] = system: ducksalad (Heteranthera limosa); experiment: as above; details: 250 g ai/ha, Flood, applied to paddy water, evaluated after 13 days
# In short: as §2
# rice (Oryza sativa) = experiment: as above; details: 250 g ai/ha, Flood, applied to paddy water, evaluated after 13 days
# In short: as §2
# [27] = system: sedge, umbrella (small-flower umbrella sedge, Cyperus difformis); experiment: as above; details: 250 g ai/ha, Flood, applied to paddy water, evaluated after 13 days
# In short: as §2
# [28] = 62 g ai/ha, 0 = no effect, 100 = complete control
# [29] = 62 g ai/ha, postemergence, 10 days, 0 = no effect, 100 = complete control
# [30] = Postemergence, 16 g ai/ha, greenhouse 10 days, 0 no effect, 100 complete control
structure (smiles),measurement,setting,value
COC(=O)C1CC(NC(=O)C2(C)CN(c3cc(F)cc(F)c3)C(=O)O2)C1 (stereo not shown) [Compound 117],Barnyardgrass plant response rating,"[1]; 16 g ai/ha, 0 to 100 scale",0
same,Barnyardgrass plant response rating (0-100),[1]; [28],10
same,Blackgrass plant response rating,"[2]; 16 g ai/ha, 0 to 100 scale",30
same,Blackgrass plant response rating (0-100),[2]; [28],60
same,Corn plant response rating,"corn (Zea mays) [3]; 16 g ai/ha, 0 to 100 scale",0
same,Corn plant response rating (0-100),corn (Zea mays) [3]; [28],0
same,"Foxtail, Green plant response rating","[4]; 16 g ai/ha, 0 to 100 scale",0
same,"Foxtail, Green plant response rating (0-100)",[4]; [28],80
same,Kochia plant response rating,"kochia (Bassia scoparia) [5]; 16 g ai/ha, 0 to 100 scale",0
same,Kochia plant response rating (0-100),kochia (Bassia scoparia) [5]; [28],0
same,"Oat, Wild plant response rating","[6]; 16 g ai/ha, 0 to 100 scale",40
same,"Oat, Wild plant response rating (0-100)",[6]; [28],90
same,"Pigweed, Palmer plant response rating","[7]; 16 g ai/ha, 0 to 100 scale",0
same,"Pigweed, Palmer plant response rating (0-100)",[7]; [28],10
same,Ragweed plant response rating,"[8]; 16 g ai/ha, 0 to 100 scale",0
same,Ragweed plant response rating (0-100),[8]; [28],0
same,"Ryegrass, Italian plant response rating","[9]; 16 g ai/ha, 0 to 100 scale",0
same,"Ryegrass, Italian plant response rating (0-100)",[9]; [28],70
same,Soybean plant response rating,"soybean (Glycine max) [10]; 16 g ai/ha, 0 to 100 scale",0
same,Soybean plant response rating (0-100),soybean (Glycine max) [10]; [28],0
same,Wheat plant response rating,"[11]; 16 g ai/ha, 0 to 100 scale",0
same,Wheat plant response rating (0-100),[11]; [28],20
same,Barnyardgrass plant response rating (0-100),[12]; [29],70
same,Barnyardgrass plant response rating (0 to 100 scale),[12]; [30],0
same,Blackgrass plant response rating (0-100),[13]; [29],90
same,Blackgrass plant response rating (0 to 100 scale),[13]; [30],70
same,Corn plant response rating (0-100),corn (Zea mays) [14]; [29],100
same,Corn plant response rating (0 to 100 scale),corn (Zea mays) [14]; [30],0
same,Galium plant response rating (0-100),[15]; [29],60
same,Galium plant response rating (0 to 100 scale),[15]; [30],50
same,"Foxtail, Green plant response rating (0-100)",[16]; [29],90
same,"Foxtail, Green plant response rating (0 to 100 scale)",[16]; [30],30
same,Horseweed plant response rating (0-100),[17]; [29],0
same,Horseweed plant response rating (0 to 100 scale),[17]; [30],0
same,Kochia plant response rating (0-100),kochia (Bassia scoparia) [18]; [29],0
same,Kochia plant response rating (0 to 100 scale),kochia (Bassia scoparia) [18]; [30],0
same,"Oat, Wild plant response rating (0-100)",[19]; [29],80
same,"Oat, Wild plant response rating (0 to 100 scale)",[19]; [30],10
same,"Pigweed, Palmer plant response rating (0-100)",[20]; [29],10
same,"Pigweed, Palmer plant response rating (0 to 100 scale)",[20]; [30],0
same,Ragweed plant response rating (0-100),[21]; [29],40
same,Ragweed plant response rating (0 to 100 scale),[21]; [30],0
same,"Ryegrass, Italian plant response rating (0-100)",[22]; [29],80
same,"Ryegrass, Italian plant response rating (0 to 100 scale)",[22]; [30],60
same,Soybean plant response rating (0-100),soybean (Glycine max) [23]; [29],60
same,Soybean plant response rating (0 to 100 scale),soybean (Glycine max) [23]; [30],40
same,Wheat plant response rating (0-100),[24]; [29],90
same,Wheat plant response rating (0 to 100 scale),[24]; [30],50
same,"Plant response rating, Barnyardgrass (0 to 100 scale, 0 is no effect and 100 is complete control)",[25],0
same,"Plant response rating, Ducksalad (0 to 100 scale, 0 is no effect and 100 is complete control)",[26],0
same,"Plant response rating, Rice (0 to 100 scale, 0 is no effect and 100 is complete control)",rice (Oryza sativa),0
same,"Plant response rating, Sedge, Umbrella (0 to 100 scale, 0 is no effect and 100 is complete control)",[27],0
